Measured values as given in US20140066449A1, “DIPYRIDINIUM DERIVATIVES” (SABREPHARM LIMITED, priority 2011, published 2014).
Read-outs that look alike come from different tables or passages of the source.

Columns and labels:
[1] = system: MCF-7 Human Breastadenocarclnoma Xenograft; experiment: MCF-7 xenograft model study; type: in vivo, mice; details: 200 mg/kg, i.v., d 0, 2, 4, 7, 9 & 11
From the text: Evaluation of the Efficacy of the Compounds C & D (Examples 2 & 3 Respectively) in the MCF-7 Human Breastadenocarclnoma Xenograft Model

[2] = Redox potential study, square wave voltammetry; type: physicochemical; details: 0.1 mol dm-3 LiNTf2, 20° C., first scan
Protocol: BioAnalytical Systems CV50W potentiostat (from BAS Inc., USA)
Square wave voltammetry (4 mV step, 25 mV pulse, 10 Hz SW frequency)
3 mm diameter glassy carbon working electrode (from BAS)
3 mm diameter glassy carbon counter electrode (from BAS)
Saturated calomel reference electrode (SCE, from Sycopel Scientific Ltd., UK)
0.1 mol dm-3 lithium bis(trifluoromethanesulphonyl)imide ((LiNTf2)CAS 90076-65-6, from 3M)
Voltammograms were recorded from 0.5 V to −1.2 V in deoxygenated solutions of the Compounds.

[3] = system: H460 non-small cell lung adenocarcinoma; experiment: MTT in vitro cytotoxicity, H460; type: cell-based; details: H460, 10 day exposure
Protocol: (§1) All were stored in the dark at 4° C. An accurately weighed amount of each compound was dissolved in DMSO and Hank's Balanced Salt Solution (Sigma) according to Table 2 below:
(§2) Further dilutions were made in complete RPMI1640 cell culture medium (RPMI1640 cell culture medium supplemented with 10% foetal bovine serum, 1 mM L-glutamine, and 2 mM sodium pyruvate (all from Sigma)).
(§3) H460 non-small cell lung adenocarcinoma, HT-29 colon adenocarcinoma and MCF-7 breast adenocarcinoma (ECACC, Salisbury, Wiltshire) were used for analysis. Cells were cultured in complete RPMI1640 cell culture medium, and maintained as monolayer cultures at 37° C. in a humidified 5% CO2 environment.
(§4) Tumour cell growth inhibition was assessed using the MTT assay with a standard 96 hour plus an extended 10 day incubation. For the 96 hour assay 1×10^4 cells were inoculated into each well of a 96-well plate and incubated overnight at 37° C. in a humidified atmosphere containing 5% CO2 to give time to adhere to the wells and form a monolayer. For the 10 day incubation, 1×102 (H460 and HT-29) and 1×103 (MCF-7) cells were inoculated. The next day, culture medium was removed from each well and replaced with cell culture media for the untreated control, or media containing compound, and the plates then incubated for a further 96 hours or 10 days. […] After 96 hours or 10 days culture medium was removed and 200 μL of 0.5 mgmL-1 MTT solution (Sigma) in complete medium added to each well. Following a further 4 hours incubation, the solution was removed from each well and 150 μL of DMSO added to solubilise the formazan crystals resulting from MTT conversion. Absorbance values for the resulting solutions were read at 550 nm on a Multiskan Ex microplate reader (Thermo Fisher, Loughborough, UK) and cell survival calculated as the absorbance of treated cells divided by the control. Results are expressed in terms of IC50 values (i.e. concentration of compound required to kill 50% of cells), which were determined manually in Microsoft Excel from plots of concentration versus percentage cell survival, and all experiments were performed in triplicate.

[4] = system: HT-29 colon adenocarcinoma; experiment: MTT in vitro cytotoxicity, HT-29; type: cell-based; details: HT-29, 10 day exposure
Protocol: as §1, §2, §3, §4

[5] = system: MCF-7 breast adenocarcinoma; experiment: MTT in vitro cytotoxicity, MCF-7; type: cell-based, human; details: MCF-7, 10 day exposure
Protocol: as §1, §2, §3, §4

[6] = highest concentration 30 μM, read-out: IC50 Run 1
[7] = highest concentration 100 μM, read-out: IC50 Run 2
[8] = highest concentration 100 μM, read-out: IC50 Run 3

| Substance | Growth delay [1] | Maximum % weight loss [1] | Reduction potential 1 [2] | Reduction potential 2 [2] | IC50 [3, 6] | IC50 [3, 7] | IC50 [3, 8] | IC50 [4, 6] | IC50 [4, 7] | IC50 [4, 8] | IC50 [5, 6] | IC50 [5, 7] | IC50 [5, 8] |
| --- | --- | --- | --- | --- | --- | --- | --- | --- | --- | --- | --- | --- | --- |
| 3-((2-(2-methoxy-ethoxy)(ethoxy)n)methyl)-6,7-dihydrodipyrido[1,2-a:2′,1′-c]pyrazine-5,8-diium bistrifluoromethanesulfonate [Compound C] | 3.1 days | 0% | −0.470 V vs. SCE | −0.803 V vs. SCE | > 30 µM | > 100 µM | > 100 µM | > 30 µM | 82 µM | 78 µM | > 30 µM | 97 µM | > 100 µM |
| 3-(((2-(2-methoxyethoxy)(ethoxy)n)ethyl) hexane-1,6-diyldicarbamate)methyl)-6,7-dihydrodipyrido[1,2-a:2′,1′-c]pyrazine-5,8-diium bistrifluoromethanesulfonate [Compound D] | 2.4 days | 0% | −0.423 V vs. SCE | −0.828 V vs. SCE | > 30 µM | > 100 µM | > 100 µM | > 30 µM | > 100 µM | 81 µM | > 30 µM | 72 µM | > 100 µM |
